According to publication PMC3951324, “Side Chain Hydrophobicity Modulates Therapeutic Activity and Membrane Selectivity of Antimicrobial Peptide Mastoparan-X” (PLoS ONE, 2014):
Ends that are not written are not given here.

Columns and labels:
[1] = Pyrene-cmc assay (micelle/aggregate formation); assay type: physicochemical
Protocol: Fluorescence excitation spectra were collected using an Olis modernized SLM8000 fluorescence spectrophotometer equipped with single-grating emission and double-grating excitation monochromator. The fluorometer was equipped with photon counter detectors. Pyrene was used to probe micellation as it is sensitive to environment hydrophobicity. Peptides were incubated in concentrations of 0.1–1000 µM in 10 mM HEPES, 100 mM sodium chloride, pH 7.4 buffer containing 75 nM pyrene. Samples were incubated for 2 h at 60°C followed by incubation overnight at room temperature and kept in the dark until measured. Measurements were carried out at 37°C. Excitation spectra were collected using emission wavelength 390 nm and 16 nm emission slit sizes. Excitation spectra were scanned in range 310–350 nm with excitation slits sizes of 0.5 nm. The excitation spectrum shift denotes the formation of micelles/aggregates (hydrophobic cavity), which is gauged by intensity ratio R = I339/I333 [29],[30]. The plot of R versus the detergent/peptide concentration, c, measures the partitioning of pyrene into the formed micelles/aggregates. The intensity ratio is fitted using the sigmoidal function [drawing 1] , where R0 and ΔR denote the initial and change in intensity ratio, respectively. α and ci denote the normalized slope and peptide concentration at which curve inflection occurs, respectively. […]

[2] = system: Escherichia coli, strain INV-α; experiment: Determination of minimal inhibitory concentration (MIC); assay type: cell-based; details: LB medium, 37°C, 20 h, shaking, peptide 0.05–50 µM, absorbance 570 nm, triplicates
Protocol: (§1) A stock dilution series with ten points, ranging from 1 µM to 1 mM, was prepared in sterile PBS from freshly dissolved peptides. The dilution series was dispensed in triplicates in 96-deepwell microtiter plates (VWR Denmark, Herlev, Denmark), with 15 µl in each well. Multidispensing with electronic pipettes (Biohit, Tåstrup, Denmark) was used throughout. Lactococcus lactis, strain MG1363 (ATCC, LGC Standards AB, Boras, Sweden) and Escherichia coli, strain INV-α (Invitrogen, Nærum, Denmark) were grown in M9 (Sigma Aldrich, Brøndby, Denmark) and LB medium (Difco, BD Biosciences, Brøndby Denmark), respectively. A single colony was grown overnight at 30°C and 37°C for L.lactis and E.coli respectively. The next day, a fresh culture was started with a twenty-fold dilution of the cells and grown for exactly 60 min (optical density was approximately 0.4 at 570 nm). The cell culture was diluted (300 fold for L.lactis and 1000 fold for E.coli) before adding 150 µl to microtiter plates already containing 15 µl peptide solution and 135 µl fresh medium. […] Plates with L.lactis were sealed with lid and parafilm, and plates with E.coli were sealed with a gas-permeable tape (VWR Denmark, Herlev, Denmark). The plates were incubated at the respective temperatures for 20 hours with shaking (150 rpm). For each measurement, 100 µl of the cell culture was transferred to clear, flat-bottomed microtiter plates, and the absorbance at 570 nm was determined using a Victor3 plate reader (Perkin Elmer, Skovlunde, Denmark). The measurement was conducted in triplicates.

[3] = system: Lactococcus lactis, strain MG1363; experiment: as above; assay type: cell-based; details: strain MG1363, M9 medium, 30°C, 20 h, shaking; peptide 0.05–50 µM; absorbance 570 nm; triplicates
Protocol: as §1

[4] = system: human red blood cells (RBCs); experiment: Haemolysis assay; assay type: cell-based
Excerpt: All Fmoc (9H-fluoren-9-yl-methyloxycarbonyl) L-amino acids and HATU (1-[Bis(dimethylamino)methylene]-1H-1,2,3-triazolo[4,5-b]pyridinium 3-oxid hexafluorophosphate, N-[(Dimethylamino)-1H-1,2,3-triazolo-[4,5-b]pyridin-1-ylmethylene]-N-methylmethanaminium hexafluorophosphate N-oxide) were purchased from GLS China (GL Biochem, Shanghai, China). Fmoc-2-amino-decanoic acid was obtained from Watanabe Chemical Industries, Ltd (Hiroshima, Japan). Lys and Trp were side-chain-protected as tert-butoxycarbonyl, Asn was sidechain protected with trityl. Tentagel resin was purchased from NovaBiochem (Merck, Darmstadt, Germany). TFA (trifluoroacetic acid), TIS (triisopropylsilane), HEPES (N-(2-hydroxyethyl)piperazine-N-(2-ethanesulfonic acid)), 2,4,6-collidine and pyrene were purchased from Sigma-Aldrich (Brøndby, Denmark). Pyridine, sodium hydroxide pellets and sodium chloride was purchased from J.T. Baker Chemicals (Phillipsburg, NJ, USA). Filter supports and Hamilton extrusion syringes, POPG (1-palmitoyl-2-oleoyl-sn-glycero-3-[phospho-rac-(1-glycerol)] sodium salt), and POPC (1-palmitoyl-2-oleoyl-sn-glycero-3-phosphocholine) were purchased from Avanti Polar Lipids (Alabaster, AL). All compounds were used without further purification. Membrane filters for extrusion (100 nm pore size, polycarbonate) were purchased from Whatman (Maidstone, UK). Cuvettes (4×10 mm, quartz, Suprasil) were purchased from Hellma (Müllheim, Germany). Purified human erythrocytes for the haemolysis studies were provided by Bioneer (Hørsholm, Denmark), and were stored at 4°C for a maximum of three days before use.
The assay was conducted as described in Etzerodt et al..

[5] = Mode of peptide-membrane interaction gauged by ITC; assay type: physicochemical; details: 20 mM POPC∶POPG (3∶1) LUVs (8 mM for OAMPX) injected 38×1 µL into 100 µM peptide, 37°C, triplicates
Protocol: Lipid stock solutions of POPC and POPG were prepared in chloroform∶methanol (9∶1). Mixtures of POPC∶POPG (3∶1) were prepared and the organic solvent was evaporated under a gentle stream of nitrogen. The lipid films were kept in vacuum (P<0.1 Pa) overnight in order to remove the residual solvent. Buffer containing 10 mM HEPES and 100 mM sodium chloride (pH 7.4) was added to the lipid films, and they were hydrated for 60 min followed by extrusion through 100 nm using an Avanti mini-extruder. Dynamic Light Scattering (DLS, Brookhaven Instrument Corporation, ZetaPALS) was used for measuring the liposome size distribution. The effective lipid concentration was determined by inductively coupled plasma atomic emission spectroscopy (ICP-AES Vista AX, Varian).
The nature of the peptides' membrane interaction was studied as a function of lipid/peptide ratio (L/P) by ITC (iTC200, Microcal). All experiments were conducted by injection of 20 mM LUVs into 100 µM peptide solution. For OAMPX, 8 mM LUVs were used. The experiments were conducted as 38×1 µL injections, T = 37°C, and the speed of the stirrer was 1000 rpms. All titrations were conducted in triplicates.

[6] = obtained via tryptophan fluorescence measurements; cited from earlier work

INWKGIAAMAKKLL-NH2 [MPX, mastoparan X, reference compound]
Critical micelle concentration (cmc) ([1]; pyrene (75 nM) fluorescence excitation shift I339/I333, 10 mM HEPES, 100 mM NaCl, pH 7.4, peptide 0.1–1000 µM, 2 h 60°C then overnight RT, measured at 37°C, cmc = onset of sigmoid, triplicates): >1000 µM | cmc ([1]; pyrene assay, no shift in pyrene excitation spectrum in covered concentration range, pH 7.4, 37°C): > 1 mM | MIC (E. coli) [2]: 8 ± 3 µM | MIC (L. lactis) [3]: 2.5 ± 0.5 µM | % haemolysis ([4]; human RBCs, 50 µM peptide): 15% | H5, concentration at which 5% haemolysis has been obtained ([4]; purified human erythrocytes, assay as in Etzerodt et al. [14]): 18 ± 2 µM | endpoint of the reversible (secondary) process, lipid/peptide ratio L/P [5]: ~21 | effective charge (previous result) [6]: 1.7
